Test results taken from patent publication US11505536B2, “Dihydroorotate dehydrogenase inhibitors” (Janssen Biotech, Inc., priority 2019, dated 2022).

Assays:
[1] = tested on: MOLM-13 cells (human acute myeloid leukemia cells); experiment: MOLM-13 Cellular Assay; type: cell-based; details: Homo sapiens, MOLM-13, 72 h, 72 hours exposure, cell viability by CellTiter-Glo
Method in brief: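 MOLM-13 AML cells, seeded at 5,000/well in RPMI 1640 with 10% FBS, were treated with compounds right after seeding for 72 h at 37 °C, 5% CO2. Viability read by CellTiter-Glo luminescence.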

human DHODH = human DHODH (Homo sapiens (Human), UniProt Q02127); experiment: DHODH Enzymatic Assay; type: biochemical; details: purified human DHODH, DCIP absorbance, end-point mode; read-out: hDHODH IC50
Sequence of human DHODH (Q02127 whole entry): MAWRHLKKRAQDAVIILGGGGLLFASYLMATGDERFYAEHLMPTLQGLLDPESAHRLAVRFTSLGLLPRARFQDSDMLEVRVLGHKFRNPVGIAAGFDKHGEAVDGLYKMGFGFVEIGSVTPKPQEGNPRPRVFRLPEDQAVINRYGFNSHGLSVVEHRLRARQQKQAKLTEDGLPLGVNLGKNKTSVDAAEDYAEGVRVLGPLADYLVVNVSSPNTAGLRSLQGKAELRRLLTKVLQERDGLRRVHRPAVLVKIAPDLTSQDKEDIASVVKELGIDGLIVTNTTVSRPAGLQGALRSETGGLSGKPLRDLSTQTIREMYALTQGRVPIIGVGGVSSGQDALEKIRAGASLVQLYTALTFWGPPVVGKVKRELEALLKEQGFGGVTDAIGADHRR
Method in brief: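 Purified human DHODH in […] HEPES pH 7.5, 150 mM NaCl, 0.5 mM EDTA, 0.1% Triton X-100; reaction started with substrate mix of 20 mM DHO, 5 mM CoQ6, 1 mM DCIP. End-point read as DCIP reduction (absorbance ~600 nm) after brequinar quench.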

IC50 [1]: 0.4 nM | IC50 (human DHODH): 0.623 nM
Compound: [2H]C([2H])([2H])c1ccccc1-n1cc(C(C)C)c2nc(-n3nc(CO)n(CC)c3=O)c(F)cc2c1=O [Example 142, 2-(4-Ethyl-3-(hydroxymethyl)-5-oxo-4,5-dihydro-1H-1,2,4-triazol-1-yl)-3-fluoro-8-isopropyl-6-(o-D3-tolyl)-1,6-naphthyridin-5(6H)-one]
